{"source": "patent US11896589B2", "about": "“Diazinyl amino acridines and medical uses thereof” (MyCural Therapeutics AB, priority 2018, dated 2024)", "key": {"[1]": {"target": "T1, MYC:MAX heterodimer (MYCbHLHZip, labelled MAXbHLHZip) (Homo sapiens, UniProt P01106)", "T1 construct": "MYC:MAX heterodimer formation assay based on recombinant proteins", "T1 sequence (P01106 368-449 limits assumed, one chain of several)": "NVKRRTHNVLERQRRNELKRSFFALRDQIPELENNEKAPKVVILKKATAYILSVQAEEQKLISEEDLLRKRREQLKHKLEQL", "assay": "Assay 1A MYC:MAX heterodimer MST assay", "type": "binding", "details": "thermophoresis shift of 1 μM labelled MAXbHLHZip with 1 μM MYCbHLHZip", "protocol": "FIG. 1: A) Microscale thermophoresis (MST) of fluorescently labeled MAX in a MYC:MAX heterodimer formation assay based on recombinant proteins. MST of labeled MAXbHLHZip after titration of Example 1 pre-incubated with 1 μM MYCbHLHZip, or with 1 μM MAXbHLHZip. Fluorescence intensity of labeled MAXbHLHZip relative DMSO was plotted against Example 1 concentration. B) Surface plasmon resonance (SPR) of MYC:MAX heterodimer formation assay. MAXbHLHZip was immobilized by an amino coupling procedure to a CM5 sensor chip. MYCbHLHZip pre-incubated with or without compound (as indicated) was injected over MAX for 180 seconds, allowed to dissociate for 240 seconds and regenerated. […] C) MYC binding response units (RU) plotted against Example 1 concentration from which an IC50 of Example 1 inhibition of MYC:MAX heterodimer formation is determined, summary of four experiments. […]\nMST measures the movement of fluorescent labelled molecules in a microscopic temperature gradient. Changes in charge, size or of the hydration shell of the fluorescent molecule affects its migration in the temperature gradient, which can be detected by the fluorescence of the molecule (See Seidel et al., Microscale thermophoresis quantifies biomolecular interactions under previously challenging conditions, METHODS (2013)). […] Capillaries were scanned to measure initial fluorescence of compound. […]"}, "MYCbHLHZip": {"target": "T2, MYCbHLHZip (Homo sapiens, UniProt P01106)", "T2 construct": "An amino coupling procedure was used to immobilize MYCbHLHZip protein on a CM5 sensor chip", "T2 sequence (P01106 368-449 limits assumed)": "as the sequence (P01106 368-449 limits assumed, one chain of several) above", "assay": "Assay 2B MYC SPR assay", "type": "binding", "protocol": "FIG. 3: A) SPR assay to determine affinity of Example 1 to MYC. MYC bHLHZip protein was immobilized by aminocoupling on a CM5 sensor chip. Example 1 was injected at various concentrations in a kinetic experiment. The reference surface was subtracted from the analyte surface to generate a sensorgram. […] B) Four MYC equilibrium binding experiments with Example 1 summarized in an equilibrium binding plot. […] Equilibrium binding experiments of MYC with Example 2 and control compound (non-binder) were plotted as well. Assay 2B. MYC SPR Assay To analyze the direct binding of compounds to MYC, the direct binding of compounds to MYC was detected by surface plasmon resonance (SPR) as described above (Biological example 1—Assay 1B). An amino coupling procedure was used to immobilize MYCbHLHZip protein on a CM5 sensor chip (GE Healthcare) resulting in immobilization levels of approximately 800 respectively 1000 RU. The compounds were injected at different concentrations, one at a time, over the surface for 50-80 seconds with a flow rate of 30 μl/min. Afterwards the compounds were allowed to dissociate for 240 seconds in running buffer (137 mM NaCl, 2.7 mM KCl, 10 mM Na2HPO4, 1.8 mM KH2PO4, 0.005% Tween-20, 1% DMSO, pH 7.4). To remove all remaining analyte the surface was regenerated with 2M Urea for 30 seconds and thereafter 1M NaCl, 2.7 mM KCl, 10 mM Na2HPO4, 1.8 mM KH2PO4, 1% DMSO, pH 7.4 for 30 seconds. Sensorgrams were generated by subtraction of the reference (blank immobilized) surface. Binding responses were related to respective compounds' Rmax. Rmax is the maximum response of a compound when it binds with a 1:1 stochiometry to the protein; Rmax=(MW analyte/MW ligand)×immobilized ligand level on the chip (RU) x stoichiometry (1:1). Kinetic experiments were carried out where recombinant MYC bHLHZip was immobilized on the chip and different concentrations of Example 1 were injected as above. […] Example 2-6 were analyzed for their MYC binding properties by equilibrium binding experiments as described for example 1."}, "[2]": {"test_system": "MYC-ER driven transcription of ODC1, RSG16, CR2 in U2OS-MYC-ER cells", "assay": "Assay 4 MYC target gene expression (RT-qPCR)", "type": "cell-based", "protocol": "FIG. 5: A) Inhibition of MYC transactivation of target genes (A) ODC1, (B) RSG16, and (C) CR2 as determined by RT-qPCR analysis, based on three biological experiments with three technical repeats each. U2OS-MYC-ER cells were treated with or without 100 nM 4-hydroxy-tamoxifen (HOT) for 4 hours, after which DMSO or Example 1 was added for 24 hours before total RNA was extraction. Fold changes in mRNA expression are presented relative to DMSO in non-HOT-treated cells after normalization to GAPDH, used as reference gene. Assay 4: Gene Expression To investigate the effect of the compounds on MYC-driven transcription, we utilized U2OS cells containing a MYC-estrogen receptor (MYC-ER) fusion protein, the activity of which is regulated by the ligand 4-hydroxytamoxifen (HOT). RT-qPCR was performed essentially as described in Bahram, F. et al. Interferon-gamma-induced p27KIP1 binds to and targets MYC for proteasome-mediated degradation. Oncotarget 7, 2837-2854, doi:10.18632/oncotarget.6693 (2016)."}}, "note": "Read-outs that look alike come from different tables or passages of the source."}
{"compound": "CCOc1ccc2nc3cc(/N=N/c4ccc(N)nc4N)ccc3c(N)c2c1", "note": "[Example 1, 3-((9-amino-7-ethoxyacridin-3-yl)diazenyl)pyridine-2,6-diamine sulphate hydrate]", "values": [{"measurement": "Kd", "setting": "[1]", "result": 4300, "unit": "nM"}, {"measurement": "Kd", "setting": "MYCbHLHZip; 1:1 Langmuir model, read-out: KD (average of four kinetic experiments)", "result": "1600 ± 500", "unit": "nM"}, {"measurement": "Kd", "setting": "MYCbHLHZip; Langmuir 1:1, constant Rmax 43 RU, read-out: KD (one representative kinetic experiment)", "result": 2500, "unit": "nM"}, {"measurement": "Binding relative to Rmax", "setting": "MYCbHLHZip; equilibrium binding experiments", "result": 1.6, "unit": "Response Units"}, {"measurement": "kon", "setting": "MYCbHLHZip; representative kinetic experiment, read-out: association rate ka", "result": 9290, "unit": "M⁻¹ s⁻¹"}, {"measurement": "koff", "setting": "MYCbHLHZip; representative kinetic experiment, read-out: dissociation rate kd", "result": 0.0229, "unit": "s⁻¹"}, {"measurement": "inhibition of gene expression, CR2 gene", "setting": "[2]; 10 μM", "result": 100, "unit": "%"}, {"measurement": "inhibition of gene expression, ODC1 gene", "setting": "[2]; 10 μM", "result": 100, "unit": "%"}, {"measurement": "inhibition of gene expression, RSG16 gene", "setting": "[2]; 10 μM", "result": 68, "unit": "%"}, {"measurement": "HOT-induced expression of all three MYC target genes", "setting": "[2]; 24 hours", "result": "significantly reduced"}]}
